Experimental data from ChEMBL document CHEMBL5584324, “Exploiting spirooxindoles for dual DNA targeting/CDK2 inhibition and simultaneous mitigation of oxidative stress towards selective NSCLC therapy; synthesis, evaluation, and molecular modelling studies” (RSC Med Chem, 2024).
The source made the active and inactive calls. The rule behind the calls is not given here.

Key:
NCI-H460 = assay: Cytotoxicity against human NCI-H460 cells incubated for 72 hrs by MTT assay; conditions: NCI-H460, 72 h
[1] = Selectivity index, ratio of IC50 for cytotoxicity against human WI-38 cells to IC50 for cytotoxicity against human NCI-H460 cells; format: toxicity, cell-based; conditions: WI-38 cells versus NCI-H460 cells, read-out: Ratio IC50
WI-38 = assay: Cytotoxicity against human WI-38 cells by measuring effective concentration incubated for 72 hrs by MTT assay; format: toxicity, cell-based; conditions: wi-38, 72 h
[2] = Selectivity index, ratio of IC50 for cytotoxicity against human WI-38 cells to IC50 for cytotoxicity against human A549 cells; format: toxicity, cell-based; conditions: WI-38 cells versus A549 cells, read-out: Ratio IC50
[3] = Cytotoxicity against human WI-38 cells incubated for 72 hrs by MTT assay; format: toxicity, cell-based
A549 [4] = assay: cells; conditions: Homo sapiens, A549, 72 h
Description: Cytotoxicity against human A549 cells incubated for 72 hrs by MTT assay

Calf thymus DNA [5] = assay: Binding affinity to calf thymus DNA assessed as disruption of DNA by measuring increase in TB3+ fluorescence at 5 uM incubated for 24 hrs followed by biosensor TbCl3 addition by fluorescence spectrophotometric analysis; format: tissue-based; conditions: Bos taurus
Calf thymus DNA [6] = assay: Binding affinity to calf thymus DNA assessed as disruption of DNA by measuring increase in TB3+ fluorescence at 35.3 nM incubated for 24 hrs followed by biosensor TbCl3 addition by fluorescence spectrophotometric analysis; format: tissue-based; conditions: Bos taurus
Calf thymus DNA [7] = assay: Binding affinity to calf thymus DNA assessed as disruption of DNA by measuring increase in TB3+ fluorescence upto 4 uM incubated for 24 hrs followed by biosensor TbCl3 addition by fluorescence spectrophotometric analysis; format: tissue-based; conditions: Bos taurus
A549 [8] = assay: Cytotoxicity against human A549 cells assessed as morphological damage incubated for 72 hrs by inverted phase contrast microscopic analysis; format: functional, cell-based
A549 [9] = assay: Induction of cell cycle arrest in human A549 cells assessed as accumulation of cell debris at 0.089 uM incubated for 48 hrs by propidium iodide staining based immunocytometric analysis (reference value: 2.25 %); format: functional
A549 [10] = assay: Induction of cell cycle arrest in human A549 cells assessed as accumulation of cells at S phase at 0.089 uM incubated for 48 hrs by propidium iodide staining based immunocytometric analysis (reference value: 36.94 %); format: functional
A549 [11] = assay: Induction of cell cycle arrest in human A549 cells assessed as accumulation of aggregates at 0.089 uM incubated for 48 hrs by propidium iodide staining based immunocytometric analysis (reference value: 1.81 %); format: functional
A549 [12] = assay: Induction of cell cycle arrest in human A549 cells assessed as accumulation of cells at G2/M phase at 0.089 uM incubated for 48 hrs by propidium iodide staining based immunocytometric analysis (reference value: 18.31 %); format: functional
A549 [13] = assay: Induction of cell cycle arrest in human A549 cells assessed as accumulation of cells at G1 phase at 0.089 uM incubated for 48 hrs by propidium iodide staining based immunocytometric analysis (reference value: 44.75 %); format: functional
A549 [14] = assay: Induction of apoptosis in human A549 cells assessed as necrotic cells at 0.089 uM incubated for 48 hrs by annexin V-FITC/PI staining based flow cytometry (reference value: 1.21 %); format: functional
[15] = Antioxidant activity assessed as DPPH radical scavenging activity at 100 uM incubated for 30 mins by absorbance based assay (reference value: […] %); format: functional
A549 [16] = assay: Induction of apoptosis in human A549 cells assessed as early apoptotic cells at 0.089 uM incubated for 48 hrs by annexin V-FITC/PI staining based flow cytometry (reference value: 0.37 %); format: functional
A549 [17] = assay: Induction of apoptosis in human A549 cells assessed as late apoptotic cells at 0.089 uM incubated for 48 hrs by annexin V-FITC/PI staining based flow cytometry (reference value: 0.28 %); format: functional
Calf thymus DNA [18] = assay: Binding affinity to calf thymus DNA assessed as disruption of DNA by measuring increase in TB3+ fluorescence at 24.6 nM incubated for 24 hrs followed by biosensor TbCl3 addition by fluorescence spectrophotometric analysis; format: tissue-based; conditions: Bos taurus
[19] = Antioxidant activity assessed as DPPH radical scavenging activity incubated for 30 mins by absorbance based assay; format: functional
[20] = Antioxidant activity assessed as DPPH radical scavenging activity at 10 uM incubated for 30 mins by absorbance based assay relative to trolox; format: functional

Row | IC50 (A549 [4]) [nM] | SMILES | IC50 (NCI-H460) [nM] | selectivity ratio [1] | EC100 (WI-38) [µM] | selectivity ratio [2] | IC50 at 72 h [3] [nM] | further results
1 | 212 | COc1ccc2c(c1)[C@@]1(C(=O)N2)[C@@H](C(=O)c2ccc([N+](=O)[O-])cc2)[C@H](c2cn(-c3ccccc3)nc2-c2ccccc2)[C@@H]2CC3CCCCC3N21 (some centres undefined) | 895 | 0.86 | 0.366 | 3.65 | 773 | 
2 | 131 | CN1C[C@@H](c2cn(-c3ccccc3)nc2-c2ccccc2)[C@H](C(=O)c2ccc([N+](=O)[O-])cc2)[C@@]12C(=O)Nc1ccc(Cl)cc12 | 1030 | 0.46 | 0.287 | 3.66 | 480 | 
3 | 96 | O=C(c1ccccc1[N+](=O)[O-])[C@H]1[C@H](c2cn(-c3ccccc3)nc2-c2ccccc2)[C@@H]2CC3CCCCC3N2[C@]12C(=O)Nc1ccc(Cl)cc12 (some centres undefined) | 1340 |  | 0.094 |  | 294 | Activity (Calf thymus DNA [5]): Active; Activity (Calf thymus DNA [6]): Active; Activity (Calf thymus DNA [7]): Active; Activity (A549 [8]): Active
4 | 205 | O=C(c1ccc([N+](=O)[O-])cc1)[C@H]1[C@H](c2cn(-c3ccccc3)nc2-c2ccccc2)[C@@H]2CC3CCCCC3N2[C@]12C(=O)Nc1ccccc12 (some centres undefined) | 909 | 0.78 | 0.41 | 3.47 | 712 | 
5 | 170 | O=C(c1ccccc1[N+](=O)[O-])[C@H]1[C@H](c2cn(-c3ccccc3)nc2-c2ccccc2)[C@@H]2CC3CCCCC3N2[C@]12C(=O)Nc1ccccc12 (some centres undefined) | 613 | 0.67 | 0.224 | 2.43 | 413 | 
6 | 158 | O=C(c1ccc(Br)cc1)[C@H]1[C@H](c2cn(-c3ccccc3)nc2-c2ccccc2)[C@@H]2CC3CCCCC3N2[C@]12C(=O)Nc1ccccc12 (some centres undefined) | 725 | 0.64 | 0.271 | 2.95 | 466 | 
7 | 307 | O=C(c1ccccc1)[C@H]1[C@H](c2cn(-c3ccccc3)nc2-c2ccccc2)[C@@H]2CC3CCCCC3N2[C@]12C(=O)Nc1ccccc12 (some centres undefined) | 537 | 1.53 | 0.451 | 2.69 | 825 | 
8 | 344 | CN1C[C@@H](c2cn(-c3ccccc3)nc2-c2ccccc2)[C@H](C(=O)c2ccccc2)[C@@]12C(=O)Nc1ccccc12 | 761 | 1.71 | 0.59 | 3.79 | 1300 | 
9 | 223 | CN1C[C@@H](c2cn(-c3ccccc3)nc2-c2ccccc2)[C@H](C(=O)c2ccc([N+](=O)[O-])cc2)[C@@]12C(=O)Nc1ccccc12 | 748 | 0.99 | 0.375 | 3.32 | 741 | 
10 | 235 | COc1ccc2c(c1)[C@@]1(C(=O)N2)[C@@H](C(=O)c2ccc([N+](=O)[O-])cc2)[C@H](c2cn(-c3ccccc3)nc2-c2ccccc2)CN1C | 1140 | 1.3 | 0.539 | 6.34 | 1490 | 
11 | 205 | O=C(c1ccc(Br)cc1)[C@H]1[C@H](c2cn(-c3ccccc3)nc2-c2ccccc2)[C@@H]2CC3CCCCC3N2[C@]12C(=O)Nc1cc(Cl)ccc12 (some centres undefined) | 1420 | 0.73 | 0.594 | 5.05 | 1040 | 
12 | 89 | O=C(c1ccc([N+](=O)[O-])cc1)[C@H]1[C@H](c2cn(-c3ccccc3)nc2-c2ccccc2)[C@@H]2CC3CCCCC3N2[C@]12C(=O)Nc1ccc(Cl)cc12 (some centres undefined) | 2460 |  | 0.249 |  | 480 | Activity (A549 [9]): 2.03%; Activity (A549 [10]): 33.28%; Activity (A549 [11]): 1.96%; Activity (A549 [12]): 28.16%; Activity (A549 [13]): 38.56%; Activity (A549 [14]): 7.46%; Activity [15]: 88.4%; Activity (A549 [16]): 25.72%; Activity (A549 [17]): 15.13%; Activity (Calf thymus DNA [5]): Active; Activity (Calf thymus DNA [18]): Active; Activity [19]: Dose-Dependent Effect; Activity [20]: 60%; Activity (Calf thymus DNA [7]): Active; Activity (A549 [8]): Active
13 | 192 | O=C(c1ccccc1)[C@H]1[C@H](c2cn(-c3ccccc3)nc2-c2ccccc2)[C@@H]2CC3CCCCC3N2[C@]12C(=O)Nc1cc(Cl)ccc12 (some centres undefined) | 964 | 0.53 | 0.267 | 2.65 | 509 | 
14 | 130 | O=C(c1ccccc1[N+](=O)[O-])[C@H]1[C@H](c2cn(-c3ccccc3)nc2-c2ccccc2)[C@@H]2CC3CCCCC3N2[C@]12C(=O)Nc1cc(Cl)ccc12 (some centres undefined) | 911 | 0.48 | 0.142 | 3.35 | 435 | 
15 | 231 | O=C(c1ccccc1)[C@H]1[C@H](c2cn(-c3ccccc3)nc2-c2ccccc2)[C@@H]2CC3CCCCC3N2[C@]12C(=O)Nc1ccc(Cl)cc12 (some centres undefined) | 529 | 0.88 | 0.28 | 2.02 | 467 | 
16 |  | COc1cccc2c1C(=O)c1c(O)c3c(c(O)c1C2=O)C[C@@](O)(C(=O)CO)C[C@@H]3O[C@H]1C[C@H](N)[C@H](O)[C@H](C)O1 [DOXORUBICIN] |  |  | 0.033 |  | 129 | Activity (Calf thymus DNA [5]): Active
17 | 283 | CN1C[C@@H](c2cn(-c3ccccc3)nc2-c2ccccc2)[C@H](C(=O)c2ccccc2)[C@@]12C(=O)Nc1ccc(Cl)cc12 | 417 | 1.3 | 0.308 | 1.93 | 545 | 
